Measurements published in patent US5294713A, “2-piperazinone compounds and their use” (Takeda Chemical Industries, Ltd., priority 1991, dated 1994).
Values belong to the compound of their own block, whether it stands above or below them.

How the values were obtained:
[1] = test system: guinea pig platelet aggregation; test: Inhibitory action on guinea pig platelet aggregation (ADP-stimulated PRP); type: cell-based; details: Cavia porcellus, ADP final concentration 1 μM, in vitro, read-out: Inhibitory effect on platelet aggregation in vitro (IC50) guinea pig
Procedure: TEST EXAMPLE 1 [I] Inhibitory action on guinea pig platelet aggregation
Blood was collected in 3.15% sodium citrate (1 ml for 9 ml of blood) by cardiac puncture from male guinea pig. The blood was centrifuged at 1000 g for 3 to 5 seconds at room temperature to obtain platelet rich plasma (PRP). The PRP was further centrifuged at 1000 g for 10 minutes to obtain platelet poor plasma (PPP). The number of platelets was measured using an automatic blood cell counter (Sysmex E2500, Toaiyou-densi). The platelet density of PRP was adjusted to 400,000/μl with PPP. Platelet aggregation was measured using an 8-channel aggregometer (NBS HEMA TRACER VI Niko Bioscience Inc.). The PRP (250 μl ) was preincubated at 37° C. for 2 minutes. and then incubated for 2 minutes. with 25 μl of physiological saline or various concentrations of test drugs followed by stimulation with ADP (final concentration: 1 μM). By comparing the maximum aggregation rates of the control and those of test drugs, the inhibitory rates were determined. The results are shown in [Table 1]-[Table 3].

GPIIb/IIIa = biological target: T1, GPIIb/IIIa (Homo sapiens, UniProt P05106+P08514); test: Inhibition of fibrinogen binding to GPIIb/IIIa; details: purified GPIIb/IIIa from HEL cells, biotinylated human fibrinogen 1 nM
T1 construct: Purification of GPIIb/IIIa from HEL Cells; endogenous in cells; host or cells: HEL cells (HEL 92.1.7; ATCC TIB180), human erythroleukemia; GPIIb/IIIa solubilized in Triton X-100, purified and adsorbed on microtiter plates
Procedure: (1) Cultibation of Cells Derived from Human Erythroleukemia (Hereinafter Referred to as HEL Cells)
HEL cells (HEL 92. 1. 7; ATCC No. TIB180) were purchased from ATCC (Rockville, Md., U.S.A.). The cells were grown in RPMI medium containing 40 mM N-2-hydroxyethylpiperazin-N'-2-ethanesulfonic acid (hereinafter referred to as HEPES) (pH 7.0), 100 μg/ml of Kanamycin and 10% FCS (GIBCO Laboratories, Grand Island, N.Y., U.S.A.). Cultivation was conducted at 37° C in the presence of 5% CO2.
(2) Purification of GPIIb/IIIa from HEL Cells
Purification of GPIIb/IIIa was performed using the following modification of the method of L. A. Fitzgerald et al. [J. Biol. Chem., 262, 3936 (1987)]. The purification was conducted at room temperature unless specifically mentioned. From 7 L of the culture broth on 7th day of the cultibation (floating cells), the cells were collected by centrifugation (1,000×g, 10 minutes, 4° C.), which were washed with 20 mM Tris-HCl(pH 7.5) containing 1 mM EDTA and 150 mM NaCl. The cells were suspended in 80 ml of a solubilized buffer [20 mM Tris-HCl, 150 mM NaCl, 1% Triton X-100, 1 mM MgCl2, 1 mM CaCl2, 0.1 mM (p-amidinophenyl)methanesulfonyl fluoride (hereinafter referred to as APMSF), 10 nM leupeptin, 0.02% NaN3, pH 7.4)].
The cell suspension was gently mixed for 30 minutes at 4° C. to solubilize GPIIb/IIIa. The suspension was subjected to centrigugation (100,000×g, one hour) at 4° C. to remove cell debris to obtain a cell-extraction solution (60 ml). […] The fraction which passed through the column was charged on the ConA-Sepharose column (Pharmacia LKB, .phi. 1.0×15 cm, 20 ml/hr) to allow GPIIb/IIIa to be adsorbed thereon, then GPIIb/IIIa was eluted with column buffer solution containing 0.5 M methyl α-D-mannopyranoside. The eluate thus obtained was allowed to pass through the DEAE-Toyopearl 650 M column (Tosoh, .phi. 1.6×10.5 cm, 20 ml/hr) equilibrated with the same column buffer to remove contaminating proteins.
(3) Biotinylation of Human Fibrinogen
Biotinylation of human fibrinogen was performed by the following procedure [I. F. Charo et al., J. Biol. Chem., 266, 1415 (1991)]. Human fibrinogen (Kabi Vitrum AB, Stockholm, Sweden) was dissolved in PBS so as to make its concentration 5 mg/ml. The solution was dialyzed overnight at 4° C. against 1 L of 0.1 M NaHCO3 -0.1 M NaCl (pH 8.2). Insolubles were then removed by centrifugation (100,000×g, 30 minutes), and the solution was diluted with the same buffer to the protein concentration of 1 mg/ml. To thus-diluted solution was added powdery sulfo-N-hydroxysuccinimidobiotin (Pierce Chemical Co., Rockford, Ill., U.S.A.) so as to make its final concentration 0.2 mg/ml and gently mixed to perform biotinylate fibrinogen. The resultant was subjected to dialysis against 50 mM Tris-HCl (pH 7.4) - 100 mM NaCl-0.05% NaN3. The dialysate was distributed and stored at 4° C.
(4) Inhibition Assay for Fibrinogen Binding to GPIIb/IIIa
This experiment was performed using a modification of the method described in the above-mentioned I. F. Charo et al. report. The purified GPIIb/IIIa was diluted with the buffer A (20 mM Tris-HCl, 150 mM NaCl, 1 mM CaCl2, 0.02% NaN3, pH 7.4) to a concentration of 1 μg/ml. The diluted solution was added to 96-well microtiter plates (MaxiSorp; Nunc, Denmark) at 100 μl per well, which were left standing at 4° C. overnight to allow GPIIb/IIIa to be adsorbed on the microplates. The plate was aspirated, and then 150 μl of the buffer B (35 mg/ml BSA, 50 mM Tris-HCl, 100 mM NaCl, 2 mM CaCl2, 0.02%, NaN3, pH 7.4) was added to the plate, and blocking was performed at 30° C. for 2 hours. The plate was washed twice with 250 μl each of the buffer C (1 mg/ml BSA, 50mM Tris-HCl, 100 mM NaCl, 2 mM CaCl2, pH 7.4).

[2] = test system: human platelet aggregation; test: Inhibitory action on human platelet aggregation (ADP-stimulated PRP); type: cell-based; details: ADP final concentration 3 μM, in vitro, read-out: Inhibitory effect on platelet aggregation in vitro (IC50) man
Procedure: [II] Inhibitory action on human platelet aggregation
Human blood was collected in 3.8% sodium citrate (1 ml for 9 ml of blood) by venipuncture from healthy male volunteers. The blood was centrifuged at 1000 g for 3 to 5 seconds at room temperature to obtain platelet rich plasma (PRP). The PRP was further centrifuged at 1000 g for 10 minutes to obtain platelet poor plasma (PPP). The number of platelets was measured using an automatic blood cell counter (Sysmex E2500, Toaiyou-densi). The platelet density of PRP was adjusted to 300,000/μl with PPP. Platelet aggregation was measured using an 8-channel aggregometer (NBS HEMA TRACER VI Niko Bioscience Inc.). The PRP (250 μl) was preincubated at 37° C. for 2 minutes. and then incubated for 2 minutes. with 25 μl of physiological saline or various concentrations of test drugs followed by stimulation with ADP (final concentration: 3 μM). By comparing the maximum aggregation rates of the control and those of test drugs, the inhibitory rates were determined. The results are shown in [Table 1]-[Table 3].

T1 sequence (P08514 32-887 limits assumed): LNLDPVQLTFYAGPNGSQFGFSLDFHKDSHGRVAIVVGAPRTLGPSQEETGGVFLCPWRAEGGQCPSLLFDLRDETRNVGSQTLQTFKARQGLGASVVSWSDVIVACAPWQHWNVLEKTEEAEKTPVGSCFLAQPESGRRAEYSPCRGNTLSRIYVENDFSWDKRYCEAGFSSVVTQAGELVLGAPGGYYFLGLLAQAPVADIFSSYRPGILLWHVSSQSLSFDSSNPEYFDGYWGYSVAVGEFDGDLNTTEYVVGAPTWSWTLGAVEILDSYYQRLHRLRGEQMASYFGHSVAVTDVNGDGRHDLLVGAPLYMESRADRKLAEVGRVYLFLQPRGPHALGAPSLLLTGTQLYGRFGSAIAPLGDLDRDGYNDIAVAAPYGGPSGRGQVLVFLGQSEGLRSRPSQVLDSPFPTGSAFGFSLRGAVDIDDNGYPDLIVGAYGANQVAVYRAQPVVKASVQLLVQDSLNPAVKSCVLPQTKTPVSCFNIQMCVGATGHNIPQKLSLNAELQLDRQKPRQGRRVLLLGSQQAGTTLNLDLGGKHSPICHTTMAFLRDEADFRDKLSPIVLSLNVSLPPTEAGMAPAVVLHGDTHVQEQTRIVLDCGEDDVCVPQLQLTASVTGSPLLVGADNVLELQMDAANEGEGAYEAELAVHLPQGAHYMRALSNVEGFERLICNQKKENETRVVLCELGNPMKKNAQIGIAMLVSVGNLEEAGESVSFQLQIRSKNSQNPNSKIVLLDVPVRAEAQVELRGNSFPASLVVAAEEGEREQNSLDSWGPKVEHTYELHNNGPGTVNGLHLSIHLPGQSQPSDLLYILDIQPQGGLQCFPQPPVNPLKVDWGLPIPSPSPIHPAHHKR
T1 sequence (P08514 891-1039 limits assumed): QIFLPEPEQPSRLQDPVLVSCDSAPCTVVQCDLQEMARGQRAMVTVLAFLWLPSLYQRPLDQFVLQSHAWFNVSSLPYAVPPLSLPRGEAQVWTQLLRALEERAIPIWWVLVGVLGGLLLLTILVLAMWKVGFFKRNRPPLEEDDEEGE
T1 sequence (P05106 27-788): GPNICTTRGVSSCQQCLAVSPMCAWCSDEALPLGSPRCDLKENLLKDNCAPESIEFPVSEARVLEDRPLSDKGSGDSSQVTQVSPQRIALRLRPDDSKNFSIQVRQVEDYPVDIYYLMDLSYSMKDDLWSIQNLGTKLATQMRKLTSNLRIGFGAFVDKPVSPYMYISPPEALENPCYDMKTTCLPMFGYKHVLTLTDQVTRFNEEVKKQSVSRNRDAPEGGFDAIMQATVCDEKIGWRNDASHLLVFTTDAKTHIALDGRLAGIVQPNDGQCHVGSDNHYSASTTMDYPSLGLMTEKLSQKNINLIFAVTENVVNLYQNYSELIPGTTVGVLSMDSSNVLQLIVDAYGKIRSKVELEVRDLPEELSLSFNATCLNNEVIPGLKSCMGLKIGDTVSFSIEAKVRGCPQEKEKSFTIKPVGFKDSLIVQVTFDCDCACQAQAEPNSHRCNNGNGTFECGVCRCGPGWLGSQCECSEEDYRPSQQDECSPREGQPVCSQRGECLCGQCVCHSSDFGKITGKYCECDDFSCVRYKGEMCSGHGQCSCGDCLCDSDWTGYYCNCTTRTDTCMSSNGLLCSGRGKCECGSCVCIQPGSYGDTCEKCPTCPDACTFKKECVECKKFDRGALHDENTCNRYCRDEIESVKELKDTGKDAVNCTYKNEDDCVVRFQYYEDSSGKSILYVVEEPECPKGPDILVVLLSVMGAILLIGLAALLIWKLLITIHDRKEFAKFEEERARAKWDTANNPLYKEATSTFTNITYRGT

SMILES: CN(C)CCc1ccc(C(=O)NCC(=O)N2CCN(CC(=O)O)C(=O)[C@@H]2CCC(N)=O)cc1 [compound 85]
IC50 [1]: 4100 nM | IC50 (GPIIb/IIIa): 32 nM | IC50 [2]: 5600 nM

SMILES: CC(C)(C)C(=O)OCOC(=O)CN1CCN(C(=O)CNC(=O)c2ccc(C(=N)N)cc2)[C@@H](Cc2ccccc2)C1=O [compound 63]
IC50 [1]: 460 nM | IC50 (GPIIb/IIIa): 8.9 nM | IC50 [2]: 720 nM

SMILES: COC(=O)CN1CCN(C(=O)CNC(=O)c2ccc(C(=N)N)cc2)[C@@H](CC(=O)O)C1=O [compound 57]
IC50 [1]: 1750 nM | IC50 (GPIIb/IIIa): 20 nM | IC50 [2]: 2600 nM

SMILES: COC(=O)C[C@H]1C(=O)N(CC(=O)O)CCN1C(=O)CNC(=O)c1ccc(CCN)cc1 [compound 60]
IC50 [1]: 78 nM | IC50 (GPIIb/IIIa): 0.91 nM | IC50 [2]: 93 nM

SMILES: COC(=O)C[C@H]1C(=O)N(CC(=O)O)CCN1C(=O)CNC(=O)c1ccc(C(=N)N)cc1 [compound 59]
IC50 [1]: 56 nM | IC50 (GPIIb/IIIa): 0.49 nM | IC50 [2]: 48 nM

SMILES: N=C(N)c1ccc(C(=O)NCC(=O)N2CCN(CC(=O)O)C(=O)[C@@H]2Cc2ccccc2)cc1 [compound 61]
IC50 [1]: 160 nM | IC50 [2]: 130 nM

SMILES: N=C(N)NC[C@H]1CC[C@H](C(=O)NCC(=O)N2CCN(CC(=O)O)C(=O)[C@@H]2Cc2ccccc2)CC1 [compound 16]
IC50 [1]: 4600 nM | IC50 (GPIIb/IIIa): 32 nM | IC50 [2]: 990 nM

SMILES: N=C(N)c1ccc(C(=O)NCC(=O)N2CCN(CC(=O)O)C(=O)[C@@H]2CC(=O)O)cc1 [compound 39]
IC50 [1]: 165 nM | IC50 (GPIIb/IIIa): 1 nM | IC50 [2]: 110 nM

SMILES: NCCc1ccc(C(=O)NCC(=O)N2CCN(CC(=O)O)C(=O)[C@@H]2Cc2ccccc2)cc1 [compound 89]
IC50 [1]: 200 nM | IC50 (GPIIb/IIIa): 3.6 nM | IC50 [2]: 380 nM

SMILES: N=C(N)c1ccc(C(=O)NCC(=O)N2CCN(CC(=O)O)C(=O)C2)cc1 [compound 55]
IC50 [1]: 210 nM | IC50 (GPIIb/IIIa): 0.42 nM | IC50 [2]: 94 nM

SMILES: CCC(C)[C@H]1C(=O)N(CC(=O)O)CCN1C(=O)CNC(=O)c1ccc(NC(=N)N)cc1 (stereo partly shown) [compound 65]
IC50 [1]: 4600 nM | IC50 (GPIIb/IIIa): 98 nM

SMILES: NCCc1ccc(C(=O)NCC(=O)N2CCN(CC(=O)O)C(=O)[C@@H]2CC(N)=O)cc1 [compound 88]
IC50 [1]: 84 nM | IC50 (GPIIb/IIIa): 2.3 nM | IC50 [2]: 140 nM

SMILES: N=C(N)NCc1ccc(C(=O)NCC(=O)N2CCN(CC(=O)O)C(=O)[C@@H]2CC(=O)O)cc1 [compound 8]
IC50 [1]: 1300 nM | IC50 (GPIIb/IIIa): 18 nM | IC50 [2]: 660 nM

SMILES: COC(=O)CC[C@H]1C(=O)N(CC(=O)O)CCN1C(=O)CNC(=O)c1ccc(CCN(C)C)cc1 [compound 81]
IC50 [1]: 2300 nM | IC50 (GPIIb/IIIa): 37 nM

SMILES: N=C(N)NC[C@H]1CC[C@H](C(=O)NCC(=O)N2CCN(CC(=O)O)C(=O)[C@@H]2CC(N)=O)CC1 [compound 22]
IC50 [1]: 4400 nM | IC50 (GPIIb/IIIa): 23 nM | IC50 [2]: 720 nM

SMILES: N=C(N)Nc1ccc(C(=O)NCC(=O)N2CCN(CC(=O)O)C(=O)[C@@H]2CC(=O)O)cc1 [compound 10]
IC50 [1]: 340 nM | IC50 (GPIIb/IIIa): 4.8 nM | IC50 [2]: 260 nM

IC50 (GPIIb/IIIa): 15 nM
SMILES: NCCCc1ccc(C(=O)NCC(=O)N2CCN(CC(=O)O)C(=O)[C@@H]2CC(=O)O)cc1 [compound 48]

SMILES: N=C(N)NC[C@H]1CC[C@H](C(=O)NCC(=O)N2CCN(CC(=O)O)C(=O)C2)CC1 [compound 35]
IC50 [1]: 5200 nM | IC50 [2]: 1100 nM

SMILES: N=C(N)Nc1ccc(C(=O)N2CCC[C@H]2C(=O)N2CCN(CC(=O)O)C(=O)[C@@H]2CC(=O)O)cc1 [compound 50]
IC50 [1]: 345 nM | IC50 (GPIIb/IIIa): 21 nM

SMILES: NCc1ccc(C(=O)NCC(=O)N2CCN(CC(=O)O)C(=O)[C@@H]2CC(=O)O)cc1 [compound 47]
IC50 [2]: 4200 nM

SMILES: CN(CC(=O)N1CCN(CC(=O)O)C(=O)[C@@H]1CC(=O)O)C(=O)c1ccc(NC(=N)N)cc1 [compound 51]
IC50 [1]: 370 nM | IC50 [2]: 460 nM

IC50 (GPIIb/IIIa): 46 nM
SMILES: N=C(N)NCCCCC(=O)NCC(=O)N1CCN(CC(=O)O)C(=O)[C@@H]1CC(=O)O [compound 6]

IC50 (GPIIb/IIIa): 73 nM
SMILES: N=C(N)NCc1cccc(C(=O)NCC(=O)N2CCN(CC(=O)O)C(=O)[C@@H]2CC(=O)O)c1 [compound 9]
